Key:
EGFR = EGFR (Homo sapiens (Human), UniProt P00533); test: Kinase inhibition, Mobility Shift Assay (EGFR); format: biochemical
Protocol: (§1) This assay directly monitored the ability of compounds to inhibit kinase phosphorylation by measuring non-phosphorylated and phosphorylated substrates in kinase reactions by using Mobility Shift Assays/IMAP™ analysis.
(§2) Add the kinase and DTT to 1× kinase buffer to form a 2.5× kinase solution; transfer 10 μL of 2.5× kinase solution to a 384-well reaction plate and add 1× kinase buffer to negative control wells. Incubate the plate for 10 min at room temperature; add FAM-labeled peptides, MgCl2, ATP and other reagents to 1× kinase buffer to form a 2.5× substrate solution; transfer 10 μL of the above 2.5× substrate solution to the 384-well reaction plate; incubate the plate at 28° C. for different times, and add 25 μL of stop solution to the 384-well reaction plate to stop the reaction. Read the conversion ratio data on CaliperEZ Reader II. Convert conversion rates into inhibition ratio data.
(§3) “Min” indicates the readout of the control well without the addition of kinase; and “Max” indicates the readout of the control well with the addition of DMSO. Fit IC50 values with XLFit excel add-in version 5.4.0.8.
(§4) X indicates the log value of compound concentration, and Y indicates the inhibition ratio (% inhibition).

KDR (VEGFR2) = KDR (VEGFR2) (Homo sapiens (Human), UniProt P35968); test: Kinase inhibition, Mobility Shift Assay (VEGFR2); format: biochemical
Protocol: as §1, §2, §3, §4

Chain of EGFR (P00533 25-1210): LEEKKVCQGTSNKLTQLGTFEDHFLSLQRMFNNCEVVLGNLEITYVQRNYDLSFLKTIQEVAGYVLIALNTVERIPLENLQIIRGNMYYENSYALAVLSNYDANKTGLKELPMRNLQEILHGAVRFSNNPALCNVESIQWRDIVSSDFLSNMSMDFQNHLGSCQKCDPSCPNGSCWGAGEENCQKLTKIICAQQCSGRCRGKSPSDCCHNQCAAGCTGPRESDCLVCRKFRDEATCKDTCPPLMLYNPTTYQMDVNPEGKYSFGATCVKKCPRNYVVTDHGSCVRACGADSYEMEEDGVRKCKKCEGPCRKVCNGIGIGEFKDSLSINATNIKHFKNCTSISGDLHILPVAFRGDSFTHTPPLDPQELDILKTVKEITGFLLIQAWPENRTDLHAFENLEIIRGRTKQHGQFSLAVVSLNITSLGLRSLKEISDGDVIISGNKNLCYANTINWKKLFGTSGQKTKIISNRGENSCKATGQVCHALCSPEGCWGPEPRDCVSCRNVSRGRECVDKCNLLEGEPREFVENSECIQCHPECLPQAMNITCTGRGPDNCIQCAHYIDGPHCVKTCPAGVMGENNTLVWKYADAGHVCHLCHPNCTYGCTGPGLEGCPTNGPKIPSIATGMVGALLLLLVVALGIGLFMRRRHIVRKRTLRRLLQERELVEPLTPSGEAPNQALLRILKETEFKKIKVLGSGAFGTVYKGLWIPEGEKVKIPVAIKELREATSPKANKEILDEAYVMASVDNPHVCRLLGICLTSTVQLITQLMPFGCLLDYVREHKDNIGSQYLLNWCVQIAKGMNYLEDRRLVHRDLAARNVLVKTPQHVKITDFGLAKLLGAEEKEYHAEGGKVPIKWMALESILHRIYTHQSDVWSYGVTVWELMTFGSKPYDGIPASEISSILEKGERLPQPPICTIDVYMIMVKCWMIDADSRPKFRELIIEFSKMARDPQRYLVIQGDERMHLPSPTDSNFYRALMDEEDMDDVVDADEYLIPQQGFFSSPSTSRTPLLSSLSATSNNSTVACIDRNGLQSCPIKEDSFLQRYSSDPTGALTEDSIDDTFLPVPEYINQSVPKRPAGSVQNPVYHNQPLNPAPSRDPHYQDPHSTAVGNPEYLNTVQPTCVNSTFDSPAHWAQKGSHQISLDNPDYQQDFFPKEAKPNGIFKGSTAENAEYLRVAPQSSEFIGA
Chain of KDR (VEGFR2) (P35968 790-1356): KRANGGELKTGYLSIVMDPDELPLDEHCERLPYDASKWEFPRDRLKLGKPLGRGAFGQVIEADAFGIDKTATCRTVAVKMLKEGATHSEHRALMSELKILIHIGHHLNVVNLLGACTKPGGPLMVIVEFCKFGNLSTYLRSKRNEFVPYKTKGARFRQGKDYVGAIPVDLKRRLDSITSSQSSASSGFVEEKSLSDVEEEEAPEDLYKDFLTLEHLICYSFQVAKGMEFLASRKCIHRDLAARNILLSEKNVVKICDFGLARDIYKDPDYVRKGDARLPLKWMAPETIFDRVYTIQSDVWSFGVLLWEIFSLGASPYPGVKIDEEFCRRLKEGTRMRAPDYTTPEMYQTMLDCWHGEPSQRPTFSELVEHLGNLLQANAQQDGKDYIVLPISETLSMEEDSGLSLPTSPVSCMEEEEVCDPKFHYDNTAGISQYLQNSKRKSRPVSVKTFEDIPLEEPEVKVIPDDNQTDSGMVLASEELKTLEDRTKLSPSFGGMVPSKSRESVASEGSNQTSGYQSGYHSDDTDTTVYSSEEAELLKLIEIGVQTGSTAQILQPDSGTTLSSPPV

SMILES	IC50 (EGFR) [nM]	IC50 (KDR (VEGFR2)) [nM]
O=C(NC1CC1)c1cc(F)ccc1Sc1ccc2c(/C=C/c3cnn(CCCN4CCCC4)c3)n[nH]c2c1 [Compound I-46, N-cyclopropyl-5-fluoro-2-({3-[(E)-2-{1-[3-(pyrrolidin-1-yl)propyl]-1H-pyrazol-4-yl}vinyl]-1H-indazol-6-yl}thio)benzamide]	6000 to 60000	≤ 1
O=C(NC1CC1)c1ccccc1Sc1ccc2c(/C=C/c3ccn(CCN4CCCC4)n3)n[nH]c2c1 [Compound I-60, N-cyclopropyl-2-({3-[(E)-2-{1-[2-(pyrrolidin-1-yl)ethyl]-1H-pyrazol-3-yl}vinyl]-1H-indazol-6-yl}thio)benzamide]	600 to 6000	1 to 10
O=C(NC1CC1)c1cccc(F)c1Sc1ccc2c(/C=C/c3ccn(CCN4CCCC4)n3)n[nH]c2c1 [Compound I-69]	6000 to 60000	10 to 100
CNC(=O)c1ccccc1Sc1ccc2c(/C=C/c3ccc(CN4CCCC4)cn3)n[nH]c2c1 [Compound I-74, N-methyl-2-({3-[(E)-2-{5-[(pyrrolidin-1-yl)methyl]pyridin-2-yl}vinyl]-1H-indazol-6-yl}thio)benzamide]	6000 to 60000	1 to 10
CCNC(=O)c1cccc(F)c1Sc1ccc2c(/C=C/c3ccc(CN4CCCC4)cn3)n[nH]c2c1 [Compound I-75, N-ethyl-3-fluoro-2-({3-[(E)-2-{5-[(pyrrolidin-1-yl)methyl]pyridin-2-yl}vinyl]-1H-indazol-6-yl}thio)benzamide]	6000 to 60000	1 to 10
O=C(NC1CC1)c1ccccc1Oc1ccc2c(/C=C/c3ccc(CN4CCCC4)cn3)n[nH]c2c1 [Compound I-81, N-cyclopropyl-2-({3-[(E)-2-{5-[(pyrrolidin-1-yl)methyl]pyridin-2-yl}vinyl]-1H-indazol-6-yl}oxy)benzamide]	6000 to 60000	10 to 100
CCNC(=O)c1ccc(Sc2ccc3c(/C=C/c4ccc(CN(CC)CC)cn4)n[nH]c3c2)cc1F [Compound I-87, 4-({3-[(E)-2-{5-[(diethylamino)methyl]pyridin-2-yl}vinyl]-1H-indazol-6-yl}thio)-N-ethyl-2-fluorobenzamide]	> 60000	> 100
CCN(CC)Cc1ccc(/C=C/c2n[nH]c3cc(Sc4cc(F)ccc4C(=O)NC)ccc23)nc1 [Compound I-92, 2-({3-[(E)-2-{5-[(diethylamino)methyl]pyridin-2-yl}vinyl]-1H-indazol-6-yl}thio)-4-fluoro-N-methylbenzamide]	6000 to 60000	1 to 10
CNC(=O)c1cc(F)ccc1Sc1ccc2c(/C=C/c3ccc(CN4CCCC4)cn3)n[nH]c2c1 [Compound I-95, 5-fluoro-N-methyl-2-({3-[(E)-2-{5-[(pyrrolidin-1-yl)methyl]pyridin-2-yl}vinyl]-1H-indazol-6-yl}thio)benzamide]	6000 to 60000	1 to 10
CCNC(=O)c1cccc(F)c1Sc1ccc2c(/C=C/c3cnn(CCCN4CCCC4)c3)n[nH]c2c1 [Compound I-102]	6000 to 60000	10 to 100
CCNC(=O)c1ccc(F)cc1Sc1ccc2c(/C=C/c3cnn(CCCN4CCCC4)c3)n[nH]c2c1 [Compound I-103, N-ethyl-4-fluoro-2-({3-[(E)-2-{1-[3-(pyrrolidin-1-yl)propyl]-1H-pyrazol-4-yl}vinyl]-1H-indazol-6-yl}thio)benzamide]	6000 to 60000	≤ 1
CCN(CC)CCc1ccc(/C=C/c2n[nH]c3cc(Sc4cc(F)ccc4C(=O)NC4CC4)ccc23)nc1 [Compound I-108, N-cyclopropyl-2-({3-[(E)-2-{5-[2-(diethylamino)ethyl]pyridin-2-yl}vinyl]-1H-indazol-6-yl}thio)-4-fluorobenzamide]	6000 to 60000	≤ 1
CCNC(=O)c1cccc(F)c1Sc1ccc2c(/C=C/c3ccc(CN(CC)CC)cn3)n[nH]c2c1 [Compound I-111, 2-({3-[(E)-2-{5-[(diethylamino)methyl]pyridin-2-yl}vinyl]-1H-indazol-6-yl}thio)-N-ethyl-3-fluorobenzamide]	6000 to 60000	1 to 10
O=C(NC1CC1)c1cccc(F)c1Sc1ccc2c(/C=C/c3cc(OCCN4CCCC4)ccn3)n[nH]c2c1 [Compound I-112, N-cyclopropyl-3-fluoro-2-({3-[(E)-2-{4-[2-(pyrrolidin-1-yl)ethoxy]pyridin-2-yl}vinyl]-1H-indazol-6-yl}thio)benzamide]	6000 to 60000	10 to 100
CCNC(=O)c1cccc(F)c1Sc1ccc2c(/C=C/c3cc(CN4CCCC4)ccn3)n[nH]c2c1 [Compound I-114, N-ethyl-3-fluoro-2-({3-[(E)-2-{4-[(pyrrolidin-1-yl)methyl]pyridin-2-yl}vinyl]-1H-indazol-6-yl}thio)benzamide]	> 60000	> 100
CCNC(=O)c1cc(F)ccc1Sc1ccc2c(/C=C/c3cc(CCCN4CCCC4)ccn3)n[nH]c2c1 [Compound I-122, N-ethyl-5-fluoro-2-({3-[(E)-2-{4-[3-(pyrrolidin-1-yl)propyl]pyridin-2-yl}vinyl]-1H-indazol-6-yl}thio)benzamide]	> 60000	1 to 10
O=C(NC1CC1)c1cccc(F)c1Sc1ccc2c(/C=C/c3cc(CCCN4CCCC4)ccn3)n[nH]c2c1 [Compound I-123]	> 60000	10 to 100
O=C(NC1CC1)c1cccc(F)c1Sc1ccc2c(/C=C/c3cccc(CCCN4CCCC4)n3)n[nH]c2c1 [Compound I-124]	6000 to 60000	10 to 100
O=C(NC1CC1)c1cccc(F)c1Sc1ccc2c(/C=C/c3cccc(CCN4CCCC4)n3)n[nH]c2c1 [Compound I-128, N-cyclopropyl-3-fluoro-2-({3-[(E)-2-{6-[2-(pyrrolidin-1-yl)ethyl]pyridin-2-yl}vinyl]-1H-indazol-6-yl}thio)benzamide]	> 60000	10 to 100
CCNC(=O)c1cccc(F)c1Sc1ccc2c(/C=C/c3cccc(CCN4CCCC4)n3)n[nH]c2c1 [Compound I-129, N-ethyl-3-fluoro-2-({3-[(E)-2-{6-[2-(pyrrolidin-1-yl)ethyl]pyridin-2-yl}vinyl]-1H-indazol-6-yl}thio)benzamide]	> 60000	10 to 100
O=C(NC1CC1)c1cc(F)ccc1Sc1ccc2c(/C=C/c3cccc(CCCN4CCCC4)n3)n[nH]c2c1 [Compound I-132, N-cyclopropyl-5-fluoro-2-({3-[(E)-2-{6-[3-(pyrrolidin-1-yl)propyl]pyridin-2-yl}vinyl]-1H-indazol-6-yl}thio)benzamide]	6000 to 60000	1 to 10
O=C(NC1CC1)c1ccccc1Sc1ccc2c(/C=C/c3cc(CCN4CCCC4)ccn3)n[nH]c2c1 [Compound I-133, N-cyclopropyl-2-({3-[(E)-2-{4-[2-(pyrrolidin-1-yl)ethyl]pyridin-2-yl}vinyl]-1H-indazol-6-yl}thio)benzamide]	> 60000	1 to 10
O=C(NC1CC1)c1cc(F)ccc1Sc1ccc2c(/C=C/c3cc(CCN4CCCC4)ccn3)n[nH]c2c1 [Compound I-135, N-cyclopropyl-5-fluoro-2-({3-[(E)-2-{4-[2-(pyrrolidin-1-yl)ethyl]pyridin-2-yl}vinyl]-1H-indazol-6-yl}thio)benzamide]	> 60000	10 to 100
O=C(NC1CC1)c1cc(F)ccc1Sc1ccc2c(/C=C/c3cccc(CCN4CCCC4)n3)n[nH]c2c1 [Compound I-136, N-cyclopropyl-5-fluoro-2-({3-[(E)-2-{6-[2-(pyrrolidin-1-yl)ethyl]pyridin-2-yl}vinyl]-1H-indazol-6-yl}thio)benzamide]	> 60000	1 to 10
